Measured values as given in US6291247A, “Methods of screening for factors that disrupt neurotrophin conformation and reduce neurotrophin biological activity” (priority 1996, dated 2001).
Bridges are numbered along the chain shown (N, C = ends). Where no end group is shown, it is not given here.

Legend:
p75^NTR /TrkA [1] = experiment: Receptor crosslinking of 125I-NGF with transition metal ions (receptor selectivity); assay type: binding
Description: (§1) To explore the ability of other transition metals to influence the biological activities of NGF, a series of cations known to mimic in certain respects the binding of zinc to proteins were tested. […] For this reason these ions were not tested in NGF- dependant growth phenomena. […] As these studies appeared to indicate potentially complex results upon metal ions binding to NGF, a receptor crosslinking system where specific receptor types could be identified was utilized.

p75^NTR /TrkA [2] = biological target: p75^NTR /TrkA (Mus musculus, UniProt P01139); experiment: as above; assay type: binding; details: 100 μM
Description: as §1

PC12 cells [3] = experiment: NGF-dependent survival of PC12 cells; assay type: cell-based, rat; details: for NGF-mediated survival of PC12 cells: 100 μM, serum-free, CaEDTA together with Zn2+
Description: (§2) Effects of divalent ions on NGF mediated survival and toxicity was evaluated using a colorimetric assay for the lysosomal enzyme acid phosphatase to determine cell number (Connolly, D. T., Knight, M. B., Harakas, N. K, Wittwer, A. J. & Feder, J. Determination of the number of endothelial cells in culture using an acid phosphatase assay. Anal. Biochem. 152, 136-140 (1986); Ueda, Y., Walsh, E., Nakanishi H. & Yoshida, K. A. colorometric assay method for the evaluation of neurotrophic activity in vitro. Neurosci. Lett. 165, 203-207 (1994)). […] To evaluate toxicity, the cells were seeded and maintained without NGF in RPMI with 10% heat inactivated donor horse serum and 5% fetal calf serum in the presence of additives. Loss in viable cell number was determined and expressed as a percent of control. NGF rescues PC12 cells from cell death in serum-free medium(Greene, L. A. Nerve growth factor prevents the death and stimulates neuronal differentiation of clonal PC12 pheochromocytoma cells in serum-free medium. J. Cell Biol. 78, 747-755 (1978)). NGF-dependent survival was assessed by harvesting PC12 cells in balanced salt solution followed with washing by 4 cycles of suspension and centrifugation in serum-free RPMI prior to seeding in 96 well plates. After incubation with additives, medium was removed from the wells and cells washed once with 200 μl PBS. Buffer containing 0.1M sodium acetate pH 5.5, 0.1% Triton X-100 and 10 mM p-nitrophenyl phosphate (Sigma 104 phosphatase substrate) was added to each well (100 μl). Plates were incubated at 37° C. for 3 hours. The reaction was stopped by the addition of 10 μl/well of 1N sodium hydroxide and the color development measured at 405 nm using a microplate reader. The relationship between cell number and enzyme activity was linear over the range 1000 to 15,000 cells.
as §1

PC12 cells [4] = experiment: Toxicity to PC12 cells; assay type: cell-based, rat; details: for Toxicity (PC12 cell viability): 100 μM; for Toxicity to PC12 cells: in presence of serum, up to 100 μM
Description: as §2, §1

p75^NTR and TrkA [5] = biological target: T1, p75^NTR and TrkA (Mus musculus, UniProt P01139); experiment: Binding of 125I-NGF to PC12 cells (p75NTR + TrkA); set-up: species or system rat; details: 120 min; for steady-state specific binding of 125I-NGF (0.5 nM) to p75NTR and TrkA: ± SEM
T1 construct: these cells express both NGF receptor types; endogenous in cells; host or cells: PC12 rat pheochromocytoma cells
Description: (§3) PC12 cells were grown in RPMI with 10% heat inactivated donor horse serum and 5% fetal calf serum. […] The tubes were incubated for 2 hr at 4° C. and 100 μl aliquots (providing triplicate data points for each sample) were transferred to 400 μl microcentrifuges containing 200 μl of 10% glycerol in HKR. Tubes were centrifuged for 2 minutes at 5,000 rpm, the tip containing the cell pellet cut off and radioactivity bound to the cells was determined.

p75^NTR and TrkA [6] = tested on: T2, p75^NTR and TrkA; experiment: Binding of 125I-NGF to PC12 cells (p75NTR + TrkA); set-up: species or system rat; details: for Inhibition of 125I-NGF binding: 100 μM, CaEDTA together with Zn2+
T2 construct: these cells express both NGF receptor types; endogenous in cells; host or cells: PC12 rat pheochromocytoma cells
Description: as §3

NGF [7] = biological target: T3, NGF (Mus musculus, UniProt P01139); experiment: NGF protomer crosslinking with BS3 (NGF conformation), metal ions; assay type: biochemical; details: for NGF monomer crosslinking by BS3: 0.1 nM 125I-NGF, CaEDTA together with Zn2+
T3 construct: homodimer
Description: For crosslinking NGF […], 0.4 mM BS^3 was added to the mixture and incubated for 30 minutes at 25° C. […] For CD studies, NGF (50 μg/ml) was dissolved in 50 mM Tris-HCl buffer and spectra recorded using a computer controlled Jasco J-600 spectropolarimeter. Samples were acquired in the absence or presence of Zn^2+ (100 μM) at 22° C. in a 2 mm quartz cell averaged over eight scans. Modification of His residues by DEPC was carried out as previously described, where the molar excess of DEPC added and the extent of reaction was determined by evaluating the loss of binding activity of the modified product.

TrkA = tested on: T4, TrkA; experiment: Binding of 125I-NGF to TrkA on PC12 cells (p75NTR blocked with BDNF); set-up: species or system rat; details: 100 μM CaEDTA with 100 μM Zn2+; 40 nM BDNF; ± SEM; 120 min
T4 construct: Receptor cross-linking studies were performed on PC12 rat pheochromocytoma cells; endogenous in cells; host or cells: PC12 rat pheochromocytoma cells (ATCC CRL 1721)
Description: as §3

TrkA receptor = experiment: NGF-dependent TrkA phosphorylation in PC12 cells, metal ions; assay type: cell-based, rat; details: for NGF-induced TrkA phosphorylation: 100 μM, PC12 cells
Description: Zn^2+ and/or other additives were allowed to equilibrate with NGF for 2 hours at 4° C. prior to addition of cells. PC12 cells were used at 10^6 cells/ml and incubated with 40 pM NGF for 15 minutes at 37° C. At the conclusion of the reaction, cells were washed, lysed in TBS containing 10% glycerol, 1% Triton X-100, 1 mM PMSF, 10 μg/ml aprotinin, 1 μg/ml leupeptin and 500 μM orthovanadate (lysis buffer, 10^8 cells/ml). The cellular debris was removed by centrifugation and the soluble proteins incubated with an anti-TrkA cytoplasmic domain antibody. Antibody complexes were isolated by incubating with immobilized protein G (Pierce Ultralink; 70 μl of a 50% slurry) for 2 hours at 4° C. The solid phase was washed extensively with lysis buffer and the pellet dissolved in SDS sample buffer. Proteins were resolved using 6% SDS PAGE and Western analysis performed with anti-phosphotyrosine 4G10 (UBI) visualized with ECL (Amersham).

DRG neurons = experiment: NGF-mediated neurite outgrowth of DRG neurons, metal ions; assay type: cell-based, chick; details: 100 μM
Description: Dissosiated cells enriched for sensory neurons were prepared from ED8 chick DRG as described (Dostaler, S. M. et al. Characterization of a distinctive motif of the low molecular weight neurotrophin receptor that modulates NGF-mediated neurite growth. Eur. J. Neurosci. 8, 870-879 (1996)). Neurons were seeded at a density of 800-1000 cells/well in Ham's F-12 containing 5% FCS and NGF at 10 pM into wells of Terasaki plates treated with polyysine. The cells were incubated with the indicated additives at 37° C. in a 5% CO2 atmosphere. The cells on the entire lower horizontal surface of the well were scored for neurite growth at 18-20 hours using an inverted microscope fitted with phase contrast optics. A neurite was scored if its caliber from the origin to terminal was constant and its length was equal to or greater than 1.5 cell body diameters. Neurite growth was corrected for background (no NGF).

PC12 cells [8] = experiment: Toxicity to PC12 cells; assay type: cell-based, rat
NGF [9] = biological target: T3, NGF; experiment: Cross-linking of NGF protomers in a cell-free system (Example 6); assay type: biochemical; details: R11 analogues, concentration not given
[10] = tested on: dorsal root ganglion (DRG) neurons; experiment: NGF-dependent neurite growth of ED8 chick DRG neurons (FIG. 6, Terasaki plates); assay type: cell-based; details: concentrations of 500 μk (so in the source)
Description: FIG. 6 is a graph showing the ability of R11 to inhibit the activity of NGF in vitro using a biological assay system. […] Dissociated cells enriched for sensory neurons were prepared from embryonic day 8 (ED8) chick dorsal root ganglion (DRG) as described (Sutter et al., J. Biol. Chem. 254: 5972-5982 (1979)). Neurons were seed into wells of Terasaki plates treated sequentially with poly-D-lysine and laminin at a density of 800-1000 cells/well in "synthetic" Dulbecco's modified Eagle medium (Bottenstein et al., Proc. Natl. Acad. Sci. USA 76: 514-517 (1979)) containing 1% fetal calf serum and NGF at […]. The cells were incubated with the additives indicated at 37° C. in a 5% CO2 atmosphere At 18-20 hours, the cells were fixed in 4% formaldehyde in phosphate-buffered saline and scored for neurite growth. The cells on the entire lower horizontal surface of the well were counted using an inverted microscope fitted with phase contrast optics. A neurite was scored if its caliber from origin to terminal was constant and its length was equal to or greater than 1.5 cell body diameters. Neurite growth was corrected for background (no NGF) growth in the presence and absence of peptide.
Such a profile is not typical of a competitive inhibitor. That is, a different dose response profile would be expected if R11 were simply competing with NGF for binding to a receptor. Neither of the less constrained synthetic Intermediates of R11, i.e., R11 (linear) or R11 (monocyclic), was as effective in blocking NGF-dependent neurite growth concentrations up to 200 μM.

T3 sequence (P01139 122-239): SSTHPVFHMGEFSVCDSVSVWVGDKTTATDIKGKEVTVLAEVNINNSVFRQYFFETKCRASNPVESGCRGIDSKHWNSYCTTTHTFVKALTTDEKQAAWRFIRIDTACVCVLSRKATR
T2 sequence (P01139 122-239): as above
T1 sequence (P01139 122-239): as above
p75^NTR /TrkA (Mus musculus, UniProt P01139), sequence (P01139 122-239): as above
p75^NTR /TrkA (Mus musculus, UniProt P01139), sequence (P07174 30-425 partner): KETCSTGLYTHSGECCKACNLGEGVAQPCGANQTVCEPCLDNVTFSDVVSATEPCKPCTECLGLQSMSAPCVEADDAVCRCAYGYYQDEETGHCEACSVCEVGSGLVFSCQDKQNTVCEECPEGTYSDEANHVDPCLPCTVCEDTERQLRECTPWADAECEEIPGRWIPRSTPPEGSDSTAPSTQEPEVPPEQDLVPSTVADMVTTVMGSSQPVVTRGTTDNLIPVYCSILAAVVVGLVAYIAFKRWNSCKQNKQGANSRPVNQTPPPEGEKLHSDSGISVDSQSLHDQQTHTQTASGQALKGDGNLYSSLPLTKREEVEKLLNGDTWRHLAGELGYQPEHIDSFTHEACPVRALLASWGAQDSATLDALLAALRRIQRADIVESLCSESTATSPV
p75^NTR /TrkA (Mus musculus, UniProt P01139), sequence (P35739 33-799 partner): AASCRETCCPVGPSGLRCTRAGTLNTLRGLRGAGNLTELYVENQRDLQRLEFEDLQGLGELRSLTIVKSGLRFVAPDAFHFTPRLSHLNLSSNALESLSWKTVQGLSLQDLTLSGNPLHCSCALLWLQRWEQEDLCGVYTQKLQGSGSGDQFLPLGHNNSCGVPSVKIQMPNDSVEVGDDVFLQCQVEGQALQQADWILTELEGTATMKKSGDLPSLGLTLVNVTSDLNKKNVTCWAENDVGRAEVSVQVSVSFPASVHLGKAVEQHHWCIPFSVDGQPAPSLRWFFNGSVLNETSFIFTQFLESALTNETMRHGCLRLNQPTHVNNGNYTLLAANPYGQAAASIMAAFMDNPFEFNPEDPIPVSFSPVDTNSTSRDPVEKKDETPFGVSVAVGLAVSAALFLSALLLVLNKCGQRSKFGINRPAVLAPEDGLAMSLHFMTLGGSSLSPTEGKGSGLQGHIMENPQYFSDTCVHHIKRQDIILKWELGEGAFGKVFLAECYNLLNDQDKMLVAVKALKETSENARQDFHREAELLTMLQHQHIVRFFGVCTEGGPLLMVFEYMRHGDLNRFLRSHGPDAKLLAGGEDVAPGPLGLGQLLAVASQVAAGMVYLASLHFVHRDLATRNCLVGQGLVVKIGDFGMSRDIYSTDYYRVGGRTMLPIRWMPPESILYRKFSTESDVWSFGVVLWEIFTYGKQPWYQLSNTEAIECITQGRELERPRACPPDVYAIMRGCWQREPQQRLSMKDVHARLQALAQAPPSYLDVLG
p75^NTR /TrkA, sequence (P01139 122-239): as the sequence (P01139 122-239) above
p75^NTR /TrkA, sequence (P07174 30-425 partner): as the sequence (P07174 30-425 partner) above
p75^NTR /TrkA, sequence (P35739 33-799 partner): as the sequence (P35739 33-799 partner) above
T4 sequence (P01139 122-239): as the sequence (P01139 122-239) above

[Au+3] [Au^3+]
Blocking of NGF binding to TrkA and p75NTR in receptor crosslinking (p75^NTR /TrkA [1]): selective for blocking the binding of NGF to TrkA but did not prevent the binding of NGF to p75^NTR
Receptor Selectivity (p75NTR/TrkA) (p75^NTR /TrkA [2]): TrkA only
Antagonism of NGF-dependent survival (PC12 cells [3]; high (1 nM) or low (50 pM) NGF): ability to antagonize the NGF-dependant survival
Survival @ 50 pM NGF (PC12 cells [3]; rat, pc12 cells, 100 µM): 0.1 ± 9 % control
Survival @ 1 nM NGF (PC12 cells [3]; rat, pc12 cells, 100 µM): -8 ± 5 % control
Toxicity (PC12 cell viability) (PC12 cells [4]): 102 ± 13 % control
Total Binding to PC12 cells (p75^NTR and TrkA [5]; 100 μM, 125I-NGF): 107 ± 4 % control
Prevention of 125I-NGF binding to PC12 cells (p75^NTR and TrkA [6]): did not show appreciable inhibition
NGF Protomer Conformation (active/inactive) (NGF [7]; 100 μM): active

O=C([O-])CN(CCN(CC(=O)[O-])CC(=O)[O-])CC(=O)[O-].[Ca+2].[Na+].[Na+] [CaEDTA, reference compound]
NGF-mediated survival of PC12 cells (PC12 cells [3]): reversed
steady-state specific binding of 125I-NGF (0.5 nM) to TrkA (TrkA): 87 ± 13 % Control
NGF-induced TrkA phosphorylation (TrkA receptor): Neither Ca^2+, Mg^2+ nor CaEDTA had a significant effect
Reversal of Zn2+ inhibition of TrkA phosphorylation (TrkA receptor; CaEDTA 100 μM with Zn2+ 100 μM): reversed by CaEDTA
steady-state specific binding of 125I-NGF (0.5 nM) to p75NTR and TrkA (p75^NTR and TrkA [5]; 100 μM CaEDTA with 100 μM Zn2+): 78 ± 19 % Control
Inhibition of 125I-NGF binding (p75^NTR and TrkA [6]): Inhibitory effects of Zn^2+ could also be prevented
NGF monomer crosslinking by BS3 (NGF [7]): prevented the Zn^2+ effects

[Ca+2] [Ca^2+, reference compound]
NGF-induced neurite extension (DRG neurons): no effect
NGF-mediated survival of PC12 cells (PC12 cells [3]): no effect
Toxicity to PC12 cells (PC12 cells [4]): not toxic
NGF-induced TrkA phosphorylation (TrkA receptor): not detected
steady-state specific binding of 125I-NGF (0.5 nM) to p75NTR and TrkA (p75^NTR and TrkA [5]; 100 μM): 91 ± 7 % Control
Inhibition of 125I-NGF binding (p75^NTR and TrkA [6]): neither Ca^2+ nor Mg^2+ displayed significant inhibition
NGF monomer crosslinking by BS3 (NGF [7]): no effect on crosslinking efficiency

[Cd+2] [Cd^2+]
Toxicity (PC12 cell viability) (PC12 cells [4]): 63 ± 10 % control
Toxicity to PC12 cells in serum-free conditions (PC12 cells [8]): toxic to PC12 cells

[Co+2] [Co^2+]
Toxicity (PC12 cell viability) (PC12 cells [4]): 52 ± 14 % control
Toxicity to PC12 cells in serum-free conditions (PC12 cells [8]): toxic to PC12 cells

[Hg+2] [Hg^2+]
Toxicity (PC12 cell viability) (PC12 cells [4]): 3 ± 0.8 % control
Toxicity to PC12 cells in serum-free conditions (PC12 cells [8]): toxic to PC12 cells

[Mg+2] [Mg^2+, reference compound]
NGF-induced neurite extension (DRG neurons): no effect
NGF-mediated survival of PC12 cells (PC12 cells [3]): no effect
Toxicity to PC12 cells (PC12 cells [4]): not toxic
NGF-induced TrkA phosphorylation (TrkA receptor): not detected
steady-state specific binding of 125I-NGF (0.5 nM) to p75NTR and TrkA (p75^NTR and TrkA [5]; 100 μM): 88 ± 13 % Control
Inhibition of 125I-NGF binding (p75^NTR and TrkA [6]): neither Ca^2+ nor Mg^2+ displayed significant inhibition
NGF monomer crosslinking by BS3 (NGF [7]): no effect on crosslinking efficiency

BR11: same amino acid composition as R11, except that the CVC domain has been moved to appear at the N-terminus (CVCCRASNPVESGC; disulfide 1-14, 3-4)
Cross-linking of NGF promoters (NGF dimer disruption assay) (NGF [9]): not effective in influencing the crosslinking of NGF promoters
Inhibition of NGF-mediated neurite growth [10]: did not inhibit NGF-mediated neurite growth

SR11: identical amino acid composition to R11 except that the eleven N-terminal residues have been inverted to the naturally occurring NGF sequence 58-68 (CRASNPVESGCCVC; disulfide 1-14, 11-12)
Cross-linking of NGF promoters (NGF dimer disruption assay) (NGF [9]): equally etude in reducing crosslinking of NGF promoters as R11
